Experimental data published in US20240408169A1 (priority 2023, published 2024).
Where two headings read alike, the source gives them in different places. *1 amine or outer side, *2 acyl side, *3 side chain or, on linkers, in order; H or OH if unused. Where a SMILES comes first, the peptide text is derived from it. Bridges are numbered along the chain shown (N, C = ends). [ ]: non-standard residue; d: D form. The star is where a group is joined. X127 = CN([C@@H](Cc1cc(F)ccc1-c1cnn(S(=O)(=O)C2CC2)c1)C(=O)[*:2])[*:1]; X171 = CC(=O)N1CC=C(c2ncc(Cl)cc2C[C@@H](C(=O)[*:2])N(C)[*:1])CC1; X158 = CCOc1ccc(-c2ccc(Cl)cc2C[C@@H](C(=O)[*:2])N(C)[*:1])cn1; NMehhhLys(Me) = CN([C@@H](CCCCCCCN(C)[*:3])C(=O)[*:2])[*:1]; NMe3Pal(2-OiPr,5-Cl) = CN[C@@H](Cc1cc(Cl)cnc1OC(C)C)C(=O)O; X117 = Cc1cc(-c2ccc(F)cc2C[C@@H](C(=O)[*:2])N(C)[*:1])cnn1; X135 = CN([C@@H](Cc1cc(Cl)ccc1-c1cn(C)cn1)C(=O)[*:2])[*:1]; X168 = Cc1ncc(-c2ccc(Cl)cc2C[C@@H](C(=O)[*:2])N(C)[*:1])o1; X112 = CN([C@@H](Cc1cc(F)ccc1-c1cnn(C)c1)C(=O)[*:2])[*:1]; X131 = CN([C@@H](Cc1cc(F)cnc1-c1cnn(C)c1)C(=O)[*:2])[*:1]; X207 = CN([C@@H](Cc1cc(F)ccc1-c1cn(C)cn1)C(=O)[*:2])[*:1]; NMe(hhhLys) = CN([C@@H](CCCCCCCN[*:3])C(=O)[*:2])[*:1]; X210 = CC(C)=Cc1ccc(Cl)cc1C[C@@H](C(=O)[*:2])N(C)[*:1]; Cyclobutanecarbonyl(1-CF3) = O=C(C1(C(F)(F)F)CCC1)*; cBuCO(3,3-F2-1-CF3) = O=C(C1(C(F)(F)F)CC(F)(F)C1)*; Pro(trans-4-F) = O=C(O)[C@@H]1C[C@@H](F)CN1; Gly(cPr) = N[C@H](C(=O)O)C1CC1

Tests used:
[1] = test system: OVCAR3 cells; assay: MTT proliferation assay, OVCAR3; type: cell-based; settings: 5 days compound exposure, 1:3 serial dilution starting at 10 μM;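 note: compound given as an 8- or 10-point series, one day after plating, with exposure covering roughly 3-4 cell doublings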
[2] = target: T1, CyclinE1/CDK2 (Homo sapiens, UniProt P24864); assay: Fluorescence Polarization (FP) competitive binding assay, Cyclin E1/Cdk2;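 note: readings taken after two-hour equilibration at room temperature in HEPES buffer with NaCl, DTT, NP-40 and BSA, IC50 fitted from eight-concentration serial dilution series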
T1 construct: purchased Eurofins, discovery 14-475

[3] = test system: NCI-H1048 cells; assay: MTT proliferation assay, NCI-H1048; type: cell-based; settings: 5 days compound exposure, 1:3 serial dilution starting at 10 μM;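 note: Dose-response in 96-well plates over 8 or 10 concentration points, with exposure spanning 3-4 cell doublings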
[4] = target: T2, CyclinA2/CDK2 (Homo sapiens, UniProt P20248); assay: Fluorescence Polarization (FP) competitive binding assay, Cyclin A2/Cdk2;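 note: plates equilibrated two hours at room temperature before polarization reading, IC50 fitted from eight-concentration compound titration curves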
T2 construct: purchased CRELUX Protein Services

[5] = target: T3, CyclinB1/CDK1 (Homo sapiens, UniProt P14635); assay: Fluorescence Polarization (FP) competitive binding assay, Cyclin B1/Cdk1;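 note: fluorescence polarization read after equilibration at room temperature, with IC50 taken from serially diluted dose-response curves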
T3 construct: purchased Eurofins, discovery 14-450

[6] = 10 nM Cyclin E1/Cdk2, 2 nM FAM probe, average of 2-3 independent experiments, read-out: Cyclin E FP IC50
[7] = 8 nM Cyclin A2/Cdk2, 2 nM FAM probe, average of 2-3 independent experiments, read-out: Cyclin A FP IC50
[8] = 10 nM Cyclin B1/Cdk1, 2 nM FAM probe; average of 2-3 independent experiments; read-out: Cyclin B FP IC50
[9] = read-out: Cyclin B FP IC50; 10 nM Cyclin B1/Cdk1, 2 nM FAM probe; average of 2-3 independent experiments
[10] = read-out: Cyclin A FP IC50, 8 nM Cyclin A2/Cdk2, 2 nM FAM probe, average of 2-3 independent experiments

Structure (SMILES)	GI50 [1]	IC50 [2, 6]	GI50 [3]	IC50 [4, 7]	IC50 [5, 8]	IC50 [2]	IC50 [4]	IC50 [5, 9]	IC50 [4, 10]
CC(C)C[C@@H]1NC(=O)[C@@H](N(C)C(=O)[C@@H](NC(=O)[C@@H]2C[C@@H](F)CN2C(=O)C2(C(F)(F)F)CC(F)(F)C2)C2CC2)CCCC=CCCNC(=O)[C@H](Cc2cc(Cl)ccc2-c2cnn(C)c2)N(C)C1=O [Example 285]	30 nM	1700 nM	50 nM	60 nM	20 nM				
CC(C)C[C@@H]1NC(=O)[C@@H](N(C)C(=O)[C@@H](NC(=O)[C@@H]2C[C@@H](F)CN2C(=O)C2(C(F)(F)F)CC(F)(F)C2)C2CC2)CCCCCCCN(C)C(=O)[C@H](Cc2cc(Cl)ccc2-c2cn(C)cn2)N(C)C1=O [Example 242] ({cBuCO(3,3-F2-1-CF3)}-[Pro(trans-4-F)][Gly(cPr)][NMehhhLys(Me)]L[X135]; lactam 3-C)	20 nM		30 nM			700 nM	30 nM	20 nM	
CC(C)C[C@@H]1NC(=O)[C@@H](N(C)C(=O)[C@@H](NC(=O)[C@@H]2C[C@@H](F)CN2C(=O)C2(C(F)(F)F)CC(F)(F)C2)C2CC2)CCCCCCCN(C)C(=O)[C@H](Cc2cc(F)ccc2-c2cnn(S(=O)(=O)C3CC3)c2)N(C)C1=O [Example 252] ({cBuCO(3,3-F2-1-CF3)}-[Pro(trans-4-F)][Gly(cPr)][NMehhhLys(Me)]L[X127]; lactam 3-C)	20 nM		10 nM			380 nM	30 nM	20 nM	
Cc1nnc(-c2ccc(Cl)cc2C[C@H]2C(=O)NCCCCC=CC[C@H](N(C)C(=O)[C@@H](NC(=O)[C@@H]3C[C@@H](F)CN3C(=O)C3(C(F)(F)F)CC(F)(F)C3)C3CC3)C(=O)N[C@@H](CC(C)C)C(=O)N2C)o1 (single isomer, unassigned) [Example 118-P1]	170 nM	740 nM	180 nM	110 nM	20 nM				
CCOc1ccc(-c2ccc(Cl)cc2C[C@H]2C(=O)N(C)CCCCCCC[C@H](N(C)C(=O)[C@@H](NC(=O)[C@@H]3C[C@@H](F)CN3C(=O)C3(C(F)(F)F)CC(F)(F)C3)C3CC3)C(=O)N[C@@H](CC(C)C)C(=O)N2C)cn1 [Example 182] ({cBuCO(3,3-F2-1-CF3)}-[Pro(trans-4-F)][Gly(cPr)][NMehhhLys(Me)]L[X158]; lactam 3-C)	130 nM	1170 nM	60 nM	20 nM	20 nM				
CC(C)C[C@@H]1NC(=O)[C@@H](N(C)C(=O)[C@@H](NC(=O)[C@@H]2C[C@@H](F)CN2C(=O)C2(C(F)(F)F)CCC2)C2CC2)CCCCCCCN(C)C(=O)[C@H](Cc2cc(F)cnc2-c2cnn(C)c2)N(C)C1=O [Example 245] ({Cyclobutanecarbonyl(1-CF3)}-[Pro(trans-4-F)][Gly(cPr)][NMehhhLys(Me)]L[X131]; lactam 3-C)	20 nM		80 nM			220 nM	40 nM	20 nM	
CC(C)C[C@@H]1NC(=O)[C@@H](N(C)C(=O)[C@@H](NC(=O)[C@@H]2C[C@@H](F)CN2C(=O)C2(C(F)(F)F)CC2)C2CC2)CC=CCCCCNC(=O)[C@H](Cc2cc(Cl)ccc2Cl)N(C)C1=O (single isomer, unassigned) [Example 5-P2]	560 nM	460 nM	290 nM	560 nM	20 nM				
CC(C)C[C@@H]1NC(=O)[C@@H](N(C)C(=O)[C@@H](NC(=O)[C@@H]2C[C@@H](F)CN2C(=O)C2(C(F)(F)F)CC(F)(F)C2)C2CC2)CCCCCCCN(C)C(=O)[C@H](Cc2cc(F)ccc2-c2cn(C)cn2)N(C)C1=O [Example 164] ({cBuCO(3,3-F2-1-CF3)}-[Pro(trans-4-F)][Gly(cPr)][NMehhhLys(Me)]L[X207]; lactam 3-C)	30 nM	930 nM	30 nM	70 nM	20 nM				
CC(C)C[C@@H]1NC(=O)[C@@H](N(C)C(=O)[C@@H](NC(=O)[C@@H]2C[C@@H](F)CN2C(=O)C2(C(F)(F)F)CC(F)(F)C2)C2CC2)CCCCCCCN(C)C(=O)[C@H](Cc2cc(F)cnc2-c2cnn(C)c2)N(C)C1=O [Example 244] ({cBuCO(3,3-F2-1-CF3)}-[Pro(trans-4-F)][Gly(cPr)][NMehhhLys(Me)]L[X131]; lactam 3-C)	40 nM	580 nM	100 nM	60 nM	20 nM				
CC(=O)N1C2CCC1CC(c1ccc(F)cc1C[C@H]1C(=O)N(C)CCCCCCC[C@H](N(C)C(=O)[C@@H](NC(=O)[C@@H]3C[C@@H](F)CN3C(=O)C3(C(F)(F)F)CC(F)(F)C3)C3CC3)C(=O)N[C@@H](CC(C)C)C(=O)N1C)C2 (single isomer, unassigned) [Example 59-P2]	50 nM	870 nM	60 nM	180 nM	20 nM				
Cc1cc(-c2ccc(F)cc2C[C@H]2C(=O)NCCCCCCC[C@H](N(C)C(=O)[C@@H](NC(=O)[C@@H]3C[C@@H](F)CN3C(=O)C3(C(F)(F)F)CC(F)(F)C3)C3CC3)C(=O)N[C@@H](CC(C)C)C(=O)N2C)cnn1 [Example 294] ({cBuCO(3,3-F2-1-CF3)}-[Pro(trans-4-F)][Gly(cPr)][NMe(hhhLys)]L[X117]; lactam 3-C)	130 nM	1440 nM	80 nM	80 nM	20 nM				
CC(=O)N1CC=C(c2ncc(Cl)cc2C[C@H]2C(=O)NCCCCCCC[C@H](N(C)C(=O)[C@@H](NC(=O)[C@@H]3C[C@@H](F)CN3C(=O)C3(C(F)(F)F)CC(F)(F)C3)C3CC3)C(=O)N[C@@H](CC(C)C)C(=O)N2C)CC1 [Example 302] ({cBuCO(3,3-F2-1-CF3)}-[Pro(trans-4-F)][Gly(cPr)][NMe(hhhLys)]L[X171]; lactam 3-C)	120 nM	3560 nM	140 nM	50 nM	20 nM				
CC(C)C[C@@H]1NC(=O)[C@@H](N(C)C(=O)[C@@H](NC(=O)[C@@H]2C[C@@H](F)CN2C(=O)C2(C(F)(F)F)CC(F)(F)C2)C2CC2)CC=CCCCCNC(=O)[C@H](Cc2cc(Cl)ccc2C2=CC[C@H](O)CC2)N(C)C1=O [Example 24]	170 nM	1600 nM	90 nM	60 nM	20 nM				
CC(C)C[C@@H]1NC(=O)[C@@H](N(C)C(=O)[C@@H](NC(=O)[C@@H]2C[C@@H](F)CN2C(=O)C2(C(F)(F)F)CC(F)(F)C2)C2CC2)CCCCCCCNC(=O)[C@H](Cc2cc(F)ccc2-c2cnn(C)c2)N(C)C1=O [Example 215] ({cBuCO(3,3-F2-1-CF3)}-[Pro(trans-4-F)][Gly(cPr)][NMe(hhhLys)]L[X112]; lactam 3-C)	10 nM		10 nM			200 nM		20 nM	20 nM
CC(C)C[C@@H]1NC(=O)[C@@H](N(C)C(=O)[C@@H](NC(=O)[C@@H]2C[C@@H](F)CN2C(=O)C2(C(F)(F)F)CC(F)(F)C2)C2CC2)CCCCCCCNC(=O)[C@H](Cc2cc(Cl)cnc2OC(C)C)N(C)C1=O [Example 131] ({cBuCO(3,3-F2-1-CF3)}-[Pro(trans-4-F)][Gly(cPr)][NMe(hhhLys)]L[NMe3Pal(2-OiPr,5-Cl)]; lactam 3-C)	400 nM	240 nM	290 nM	30 nM	20 nM				
Cc1ncc(-c2ccc(Cl)cc2C[C@H]2C(=O)N(C)CCCCCCC[C@H](N(C)C(=O)[C@@H](NC(=O)[C@@H]3C[C@@H](F)CN3C(=O)C3(C(F)(F)F)CC(F)(F)C3)C3CC3)C(=O)N[C@@H](CC(C)C)C(=O)N2C)o1 [Example 206] ({cBuCO(3,3-F2-1-CF3)}-[Pro(trans-4-F)][Gly(cPr)][NMehhhLys(Me)]L[X168]; lactam 3-C)	20 nM		10 nM			200 nM		20 nM	20 nM
CC(C)=Cc1ccc(Cl)cc1C[C@H]1C(=O)NCCCCCCC[C@H](N(C)C(=O)[C@@H](NC(=O)[C@@H]2C[C@@H](F)CN2C(=O)C2(C(F)(F)F)CC(F)(F)C2)C2CC2)C(=O)N[C@@H](CC(C)C)C(=O)N1C [Example 62] ({cBuCO(3,3-F2-1-CF3)}-[Pro(trans-4-F)][Gly(cPr)][NMe(hhhLys)]L[X210]; lactam 3-C)	70 nM	390 nM	60 nM	30 nM	20 nM				
CC(C)C[C@@H]1NC(=O)[C@@H](N(C)C(=O)[C@@H](NC(=O)[C@@H]2C[C@@H](F)CN2C(=O)C2(C(F)(F)F)CC(F)(F)C2)C2CC2)CC=CCCCCNC(=O)[C@H](Cc2cc(F)cnc2OC2CC2)N(C)C1=O [Example 125]	550 nM	1140 nM	490 nM	1010 nM	20 nM				
CC(C)C[C@@H]1NC(=O)[C@@H](N(C)C(=O)[C@@H](NC(=O)[C@@H]2C[C@@H](F)CN2C(=O)C2(C(F)(F)F)CC(F)(F)C2)C2CC2)CCC=CCCCNC(=O)[C@H](Cc2cc(Cl)ccc2-c2cnn(S(C)(=O)=O)c2)N(C)C1=O [Example 273, (2S,4R)—N—((S)-2-(((3S,6S,9S)-3-(5-chloro-2-(1-(methylsulfonyl)-1H-pyrazol-4-yl)benzyl)-6-isobutyl-4-methyl-2,5,8-trioxo-1,4,7-triazacyclohexadec-12-en-9-yl)(methyl)amino)-1-cyclopropyl-2-oxoethyl)-1-(3,3-difluoro-1-(trifluoromethyl)cyclobutane-1-carbonyl)-4-fluoropyrrolidine-2-carboxamide]	40 nM	1940 nM	30 nM	50 nM	20 nM				
